Reference: patent US9751826B2, “4-vinyl-2-cyclopenten-1-one derivatives, the production thereof, and the use of same as an antibiotic agent” (Centre National de la Recherche Scientifique (CNRS), priority 2014, dated 2017)

Experiments:
Format in all cases: cell-based
[1] = test system: Escherichia coli (ATCC 25922); assay: Antibiotic test, inhibition zone technique
Method: (§1) Once purified, the molecule of the compound of formula (Ia) is redissolved in suitable solvents and at a suitable concentration, preferentially in dimethyl sulfoxide (DMSO) at a concentration of 10 mg/ml. This initial solution is then diluted according to the various biological tests to be performed. Two series of tests were carried out. The molecule of the compound of formula (Ia) was used in antibiotic tests, employing the inhibition zone technique, on various Gram-positive and Gram-negative bacteria, in the amount of 100 μg. In parallel, similar tests are carried out with control antibiotics in varying amounts depending on the antibiotic, either 10 μg or 30 μg.

[2] = test system: Micrococcus luteus (ATCC 10240); assay: Antibiotic test, inhibition zone technique
Method: as §1

[3] = test system: Klebsiella pneumoniae (ATCC 1001); assay: Antibiotic test, inhibition zone technique
Method: as §1

[4] = test system: Enterobacter cloacae (ATCC 13047); assay: Antibiotic test, inhibition zone technique
Method: as §1

MRC5 cells = assay: Cytotoxicity test on non-cancerous MRC5 cells
Method: (§2) Once purified, the molecule of the compound of formula (Ia) is redissolved in suitable solvents and at a suitable concentration, preferentially in dimethyl sulfoxide (DMSO) at a concentration of 10 mg/ml. This initial solution is then diluted according to the various biological tests to be performed. Two series of tests were carried out. Tests for cytotoxicity on a KB cancer cell line (carcinoma) and an equivalent line of non-cancerous MRC5 cells. The following table presents the percentage of inhibition of growth by the molecule of the compound of formula (Ia) at concentrations of 1 and 10 micromolar.

[5] = test system: Staphylococcus aureus (ATCC 25923); assay: Antibiotic test, inhibition zone technique
Method: as §1

[6] = test system: Acinetobacter baumannii (ATCC 19606); assay: Antibiotic test, inhibition zone technique
Method: as §1

[7] = test system: Streptococcus pneumoniae (ATCC 49619); assay: Antibiotic test, inhibition zone technique
Method: as §1

[8] = test system: Bacillus subtilis (ATCC 6633); assay: Antibiotic test, inhibition zone technique
Method: as §1

[9] = test system: various target pathogenic microorganisms; assay: Antibiotic activity at 1 to 100 μg (FIG. 7); conditions: amounts of 1 to 100 μg
Method: The molecule of the compound of formula (Ia) was used in antibiotic tests, employing the inhibition zone technique, on various Gram-positive and Gram-negative bacteria, in the amount of 100 μg. In parallel, similar tests are carried out with control antibiotics in varying amounts depending on the antibiotic, either 10 μg or 30 μg.
FIG. 7 illustrates the antibiotic activity of the compound of formula (Ia) on various target pathogenic microorganisms in amounts of 1 to 100 μg in comparison with chloramphenicol and gentamycin at 30 μg and 10 μg, respectively. […] Indeed, inhibition by 1 μg of the compound of formula (Ia) is equivalent to that obtained with 30 μg of chloramphenicol. The same observations and conclusions can be made for all the strains that are sensitive to the compound of formula (Ia) as shown in FIG. 7.

[10] = test system: KB cancer cell line (carcinoma); assay: Cytotoxicity test on KB cancer cell line
Method: as §2

[11] = test system: Pseudomonas aeruginosa (ATCC 27853); assay: Antibiotic test, inhibition zone technique; conditions: 10 μg deposited
Method: as §1

Compound: O=C(N[C@H](CO)[C@H](O)c1ccc([N+](=O)[O-])cc1)C(Cl)Cl [Chloramphenicol, reference compound]
- Inhibition zone by the reference antibiotics ([1]; 30 μg deposited): 1.0 cm
- Inhibition zone by the reference antibiotics ([2]; 30 μg deposited): 3.2 cm
- Inhibition zone by the reference antibiotics ([3]; 30 μg deposited): 2.5 cm
- Inhibition zone by the reference antibiotics ([4]; 30 μg deposited): 1.5 cm

Compound: COC(=O)/C=C/[C@@]1(O)C=CC(=O)C1 [compound of formula (Ia)]
- cytotoxicity against healthy cells (MRC5 cells; 1 and 10 micromolar): no cytotoxicity is observed
- inhibition at 10 µM (MRC5 cells; Homo sapiens, 10^−5 M, read-out: percentage of inhibition of growth): 2 ± 12%
- inhibition at 1 µM (MRC5 cells; Homo sapiens, 10^−6 M, read-out: percentage of inhibition of growth): 1 ± 3%
- Inhibition zone for 100 μg of the compound of formula (Ia) ([5]; 100 μg deposited): 3.0 cm
- Inhibition zone for 100 μg of the compound of formula (Ia) ([1]; 100 μg deposited): 2.7 cm
- amount giving inhibition equivalent to that of 30 μg of chloramphenicol ([1]; FIG. 7): 1 µg
- antibiotic activity compared with chloramphenicol ([1]; FIG. 7, 1 to 100 μg vs chloramphenicol 30 μg): much higher activity than that of chloramphenicol
- Inhibition zone for 100 μg of the compound of formula (Ia) ([6]; 100 μg deposited): 3.2 cm
- Inhibition zone for 100 μg of the compound of formula (Ia) ([7]; 100 μg deposited): 2.0 cm
- Inhibition zone for 100 μg of the compound of formula (Ia) ([2]; 100 μg deposited): 3.2 cm
- Inhibition zone for 100 μg of the compound of formula (Ia) ([3]; 100 μg deposited): 2.9 cm
- Inhibition zone for 100 μg of the compound of formula (Ia) ([4]; 100 μg deposited): 1.2 cm
- Inhibition zone for 100 μg of the compound of formula (Ia) ([8]; 100 μg deposited): 2.7 cm
- dose dependence of antibiotic activity [9]: dose-dependent
- cytotoxicity against tumor cells ([10]; 1 and 10 micromolar): no cytotoxicity is observed
- inhibition at 10 µM ([10]; Homo sapiens, KB cells, 10^−5 M, read-out: percentage of inhibition of growth): 0%
- inhibition at 1 µM ([10]; Homo sapiens, KB cells, 10^−6 M, read-out: percentage of inhibition of growth): 0%

Compound: Gentamycin [reference compound]
- Inhibition zone by the reference antibiotics [11]: 1.3 cm
- Inhibition zone by the reference antibiotics ([5]; 10 μg deposited): 1.2 cm
- Inhibition zone by the reference antibiotics ([6]; 10 μg deposited): 0.9 cm
- Inhibition zone by the reference antibiotics ([8]; 10 μg deposited): 1.2 cm

Compound: Penicillin [reference compound]
- Inhibition zone by the reference antibiotics ([7]; 30 μg deposited): 3.5 cm
